{
  "source": "patent US11014898B1",
  "about": "“Benzothiazepine compounds and their use as bile acid modulators” (Albireo AB, priority 2020, dated 2021)",
  "key": {"Human IBAT": {"molecular_target": "T1, Human IBAT (Homo sapiens, UniProt Q12908)", "T1 construct": "expressed in transfected cells; cells kept under Puromycin selection", "T1 sequence (Q12908 1-348)": "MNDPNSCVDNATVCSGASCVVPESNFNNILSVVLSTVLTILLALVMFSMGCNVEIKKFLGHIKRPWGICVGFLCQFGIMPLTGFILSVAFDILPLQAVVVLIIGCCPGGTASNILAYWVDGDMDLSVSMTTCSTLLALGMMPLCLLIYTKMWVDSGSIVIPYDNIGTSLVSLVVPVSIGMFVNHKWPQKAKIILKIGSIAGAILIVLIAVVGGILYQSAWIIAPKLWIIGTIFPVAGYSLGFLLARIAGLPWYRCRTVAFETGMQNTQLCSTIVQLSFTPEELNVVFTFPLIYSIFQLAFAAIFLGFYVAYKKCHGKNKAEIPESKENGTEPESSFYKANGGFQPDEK", "test": "IBAT (h) assay: 3H-taurocholic acid uptake in human IBAT-overexpressing cells", "assay_type": "cell-based", "conditions": "0.25 μM 3H-taurocholic acid and 5 μM cold taurocholic acid, 20 minutes, read-out: hIBAT IC50", "method": "10,000 cells (Human or Mouse IBAT-overexpressing cells) were seeded in 96-wells plate (Corning CLS3809) in 200 μL MEM-alpha medium (Gibco 12571-063) supplemented with 10% FBS (Gibco 10438026) containing Puromycin (Gibco A1113803) (10 μg/mL) and incubated at 37° C. in 5% CO2 for 48 hours. After incubation, media was decanted from the wells and cells were washed two times with 300 μL of basal MEM-alpha medium (FBS-free). After decanting basal MEM-alpha medium each time, plates were tapped against paper towel to ensure maximum removal of residual media. Test inhibitor dilutions (highest test concentration being 10 μM, 3-fold serial dilution, 10 points) prepared in DMSO (Sigma D2650) were added in incubation mix (maintaining 0.2% final DMSO concentration) containing 0.25 μM 3H-taurocholic acid (ARC ART-1368) and 5 μM of cold taurocholic acid (Sigma T4009). 50 μL of incubation mix containing test inhibitors was then added to the wells (in duplicate) and the plates were incubated for 20 minutes in a CO2 incubator at 37° C. After incubation, the reaction was stopped by keeping the plates on ice water mix for 2-3 minutes and then the incubation mix was aspirated completely from the wells. The wells were washed two times with 250 μL of chilled unlabelled 1 mM taurocholic acid dissolved in HEPES (Gibco 15630080)-buffered (10 mM) HBSS (Gibco 14175079) (pH 7.4). The plates were tapped against a paper towel after every wash to ensure maximum removal of blocking buffer.\n100 μL of MicroScint-20 (PerkinElmer 6013621) was added to the wells and kept overnight at room temperature before reading the plates in TopCount NXT™ Microplate Scintillation and Luminescence Counter from PerkinElmer under 3H Test protocol (set at 120 seconds reading time per well).\nAll test compounds were provided in powder form at room temperature. 10 mM DMSO stocks of the test compounds were prepared, aliquoted and stored at −20° C. From the 10 mM DMSO stock of the compounds, a 3-fold serial dilution in DMSO was prepared to get a total of 10 dilutions of the test compounds. 0.5 μL of this dilution in DMSO was added to 250 μL of FBS-free basal media containing 3H-taurocholic acid and cold taurocholic acid to prepare the incubation mixture."}, "[1]": {"test": "Bidirectional permeability assay (Caco-2 cells)", "assay_type": "in vitro ADME", "conditions": "human, Caco-2, pH 7.4, 10 μM in FaSSIF buffer, 120 minutes at 37° C.; for Papp A→B at 120 min, 10 μM: absorptive direction (A2B); for Papp B→A at 120 min, 10 μM: secretory direction (B2A)", "method": "Caco-2 cells (Evotec) were seeded at a density of 70,000 cells/well in Millicell® 24-well cell culture insert plates and maintained in an incubator (37° C., 5% CO2, 95% RH) for 21 days with media change on alternate days.\nStock solutions (10 mM) of the test compounds, atenolol (low permeability marker), propranolol (high permeability marker) and digoxin (substrate for P-gp transport pathway) were prepared in dimethylsulfoxide (DMSO). An intermediate stock solution (1 mM) was prepared by diluting 10 μL of 10 mM master stock solution with 90 μL of neat DMSO. A working stock solution (10 μM) was prepared by diluting 50 μL of 1 mM with 4950 μL of FaSSIF buffer. Post addition of compounds to the FaSSIF, samples were subjected to sonication for 2 hours, and centrifuged at 4000 RPM for 30 minutes at 37° C. The 4 mL of resultant supernatant was directly used in the assay. The final DMSO concentration in the transport experiments was 1%.\nOn the day of assay, Caco-2 monolayers were washed twice with transport buffer (HBSS, pH 7.4) and pre-incubated for 30 min (37° C., 5% CO2, 95% RH) in an incubator. The electrical resistance of the monolayers was measured with a Millicell®-ERS system. Monolayers with trans-epithelial electrical resistance (TEER) values greater than 350 ohm·cm^2 were selected for the assay.\nThe assay was conducted in absorptive direction (A2B) and secretory (B2A) directions. Transport experiments were initiated by addition of transport assay buffer (FaSSIF buffer prepared in HBSS) consisting of compounds to the donor compartment (apical chamber A-B; basolateral chamber B-A) in duplicate (n=2) wells. Drug free HBSS buffer (pH 7.4) containing 1% bovine serum albumin (BSA) was introduced to the receiver (A-B-basolateral; B-A-Apical) compartments. The volumes of apical and basolateral compartments were 0.4 and 0.8 mL, respectively. After adding dosing solution, plates were incubated in an incubator for 120 minutes at 37° C. After 120 minutes, donor and receiver samples were collected and matrix matched (1:1, 30 μL study sample+30 μL blank buffer) with the opposite buffer. Dosing samples matrix matched (1:1, 30 μL study sample+30 μL blank buffer) with the opposite buffer. Samples were processed by adding acetonitrile containing internal standard (60 μL study sample+200 μL acetonitrile containing internal standard-Tolbutamide, 500 ng/mL). Samples were vortexed and centrifuged at 4000 rpm for 10 minutes. The obtained supernatant (100 μL) was diluted with 100 μL of water and transferred to fresh 96 well plates. The concentration of compounds in the samples was analyzed by liquid chromatography tandem mass spectrometry (LC-MS/MS) method using discovery grade bio-analytical method, as applicable.\nThe mean apparent permeability (Papp×10^−6 cm/sec) of the test compounds, atenolol, propranolol and digoxin were calculated as follows:\nwhere dq/dt=rate of transport (rate of transport of compound in the receiver compartment), C0=initial concentration in the donor compartment, A=surface area of the effective filter membrane."}},
  "note": "pIC50: −log10 of the molar value.",
  "data": [
    {"smiles": "CCCCC1(CC)CN(c2ccccc2)c2cc(N(C)C)c(OCC(=O)O)cc2S(=O)(=O)C1", "note": "(racemic) [Example 7, 2-((3-butyl-7-(dimethylamino)-3-ethyl-1,1-dioxido-5-phenyl-2,3,4,5-tetrahydro-1,5-benzothiazepin-8-yl)oxy)acetic Acid]", "values": [
      {"measurement": "pIC50", "setting": "Human IBAT", "value": 7.85}
    ]},
    {"smiles": "CCCCC1(CC)CN(c2ccc(F)cc2)c2cc(SC)c(OCC(=O)O)cc2S(=O)(=O)C1", "note": "(racemic) [Example 14, 2-((3-butyl-3-ethyl-5-(4-fluorophenyl)-7-(methylthio)-1,1-dioxido-2,3,4,5-tetrahydro-1,5-benzothiazepin-8-yl)oxy)acetic Acid]", "values": [
      {"measurement": "pIC50", "setting": "Human IBAT", "value": 8.19}
    ]},
    {"smiles": "CCCCC1(CC)CN(c2ccc(O)cc2)c2cc(SC)c(OCC(=O)O)cc2S(=O)(=O)C1", "note": "(racemic) [Example 17, 2-((3-butyl-3-ethyl-5-(4-hydroxyphenyl)-7-(methylthio)-1,1-dioxido-2,3,4,5-tetrahydro-1,5-benzothiazepin-8-yl)oxy)acetic Acid]", "values": [
      {"measurement": "pIC50", "setting": "Human IBAT", "value": 7.72}
    ]},
    {"smiles": "CCCCC1(CC)CN(c2ccccc2)c2cc(N(C)C)c(OCC(=O)O)cc2S(=O)(=O)C1", "note": "(single isomer, unassigned) [Example 9, 2-((3-butyl-7-(dimethylamino)-3-ethyl-1,1-dioxido-5-phenyl-2,3,4,5-tetrahydro-1,5-benzothiazepin-8-yl)oxy)acetic Acid]", "values": [
      {"measurement": "pIC50", "setting": "Human IBAT", "value": 6.66}
    ]},
    {"smiles": "CCCCC1(CC)CN(c2ccc(F)cc2)c2cc(SC)c(OCC(=O)O)cc2S(=O)(=O)C1", "note": "(single isomer, unassigned) [Example 15, 2-((3-butyl-3-ethyl-5-(4-fluorophenyl)-7-(methylthio)-1,1-dioxido-2,3,4,5-tetrahydro-1,5-benzothiazepin-8-yl)oxy)acetic acid]", "values": [
      {"measurement": "pIC50", "setting": "Human IBAT", "value": 8.62},
      {"measurement": "Papp A→B at 120 min, 10 μM", "setting": "[1]", "value": 8.7, "unit": "×10⁻⁶ cm/s"},
      {"measurement": "Papp B→A at 120 min, 10 μM", "setting": "[1]", "value": 12.9, "unit": "×10⁻⁶ cm/s"}
    ]},
    {"smiles": "CCCCC1(CC)CN(c2ccc(F)cc2)c2cc(SC)c(OCC(=O)O)cc2S(=O)(=O)C1", "note": "(single isomer, unassigned) [Example 16, 2-((3-butyl-3-ethyl-5-(4-fluorophenyl)-7-(methylthio)-1,1-dioxido-2,3,4,5-tetrahydro-1,5-benzothiazepin-8-yl)oxy)acetic acid]", "values": [
      {"measurement": "pIC50", "setting": "Human IBAT", "value": 7.19}
    ]},
    {"smiles": "CCCCC1(CC)CN(c2ccc(O)cc2)c2cc(SC)c(OCC(=O)O)cc2S(=O)(=O)C1", "note": "(single isomer, unassigned) [Example 19, 2-((3-butyl-3-ethyl-5-(4-hydroxyphenyl)-7-(methylthio)-1,1-dioxido-2,3,4,5-tetrahydro-1,5-benzothiazepin-8-yl)oxy)acetic Acid]", "values": [
      {"measurement": "pIC50", "setting": "Human IBAT", "value": 6.15}
    ]},
    {"smiles": "CCCCC1(CCCC)CN(c2ccccc2)c2cc(N(C)C)c(OCC(=O)O)cc2S(=O)(=O)C1", "note": "[Example 1, 2-((3,3-dibutyl-7-(dimethylamino)-1,1-dioxido-5-phenyl-2,3,4,5-tetrahydro-1,5-benzothiazepin-8-yl)oxy)acetic Acid]", "values": [
      {"measurement": "pIC50", "setting": "Human IBAT", "value": 7.62},
      {"measurement": "Papp A→B at 120 min, 10 μM", "setting": "[1]", "value": 3.2, "unit": "×10⁻⁶ cm/s"},
      {"measurement": "Papp B→A at 120 min, 10 μM", "setting": "[1]", "value": 9.4, "unit": "×10⁻⁶ cm/s"}
    ]},
    {"smiles": "CCCCC1(CCCC)CN(c2ccc(OC)cc2)c2cc(SC)c(OCC(=O)O)cc2S(=O)(=O)C1", "note": "[Example 2, 2-((3,3-dibutyl-5-(4-methoxyphenyl)-7-(methylthio)-1,1-dioxido-2,3,4,5-tetrahydro-1,5-benzothiazepin-8-yl)oxy)acetic Acid]", "values": [
      {"measurement": "pIC50", "setting": "Human IBAT", "value": 7.42},
      {"measurement": "Papp A→B at 120 min, 10 μM", "setting": "[1]", "value": 4.3, "unit": "×10⁻⁶ cm/s"},
      {"measurement": "Papp B→A at 120 min, 10 μM", "setting": "[1]", "value": 6.6, "unit": "×10⁻⁶ cm/s"}
    ]},
    {"smiles": "CCCCC1(CC)CN(c2ccc(OC)cc2)c2cc(SC)c(OCC(=O)O)cc2S(=O)(=O)C1", "note": "(stereo not shown) [Example 18, 2-((3-butyl-3-ethyl-5-(4-methoxyphenyl)-7-(methylthio)-1,1-dioxido-2,3,4,5-tetrahydro-1,5-benzothiazepin-8-yl)oxy)acetic Acid]", "values": [
      {"measurement": "pIC50", "setting": "Human IBAT", "value": 7.77}
    ]}
  ]
}
